Source: ChEMBL document CHEMBL5390267, “Selective Activation of a TRPC6 Ion Channel Over TRPC3 by Metalated Type-B Polycyclic Polyprenylated Acylphloroglucinols” (J Med Chem, 2023)
Values after ≈ are worked out from the molar mass of the structure shown. Active and inactive are the calls of the source. No cut-off for these calls is given here.

How the values were obtained:
[1] = biological target: T1, Short transient receptor potential channel 6 (Homo sapiens) (UniProt Q9Y210); experiment: Agonist activity at […] TRPC6 channel in HEK293 cells assessed as intracellular calcium influx stimulation at 10 uM by Fura-2 AM staining based calcium influx assay; format: cell-based; details: filed as agonist
T1 sequence (whole entry): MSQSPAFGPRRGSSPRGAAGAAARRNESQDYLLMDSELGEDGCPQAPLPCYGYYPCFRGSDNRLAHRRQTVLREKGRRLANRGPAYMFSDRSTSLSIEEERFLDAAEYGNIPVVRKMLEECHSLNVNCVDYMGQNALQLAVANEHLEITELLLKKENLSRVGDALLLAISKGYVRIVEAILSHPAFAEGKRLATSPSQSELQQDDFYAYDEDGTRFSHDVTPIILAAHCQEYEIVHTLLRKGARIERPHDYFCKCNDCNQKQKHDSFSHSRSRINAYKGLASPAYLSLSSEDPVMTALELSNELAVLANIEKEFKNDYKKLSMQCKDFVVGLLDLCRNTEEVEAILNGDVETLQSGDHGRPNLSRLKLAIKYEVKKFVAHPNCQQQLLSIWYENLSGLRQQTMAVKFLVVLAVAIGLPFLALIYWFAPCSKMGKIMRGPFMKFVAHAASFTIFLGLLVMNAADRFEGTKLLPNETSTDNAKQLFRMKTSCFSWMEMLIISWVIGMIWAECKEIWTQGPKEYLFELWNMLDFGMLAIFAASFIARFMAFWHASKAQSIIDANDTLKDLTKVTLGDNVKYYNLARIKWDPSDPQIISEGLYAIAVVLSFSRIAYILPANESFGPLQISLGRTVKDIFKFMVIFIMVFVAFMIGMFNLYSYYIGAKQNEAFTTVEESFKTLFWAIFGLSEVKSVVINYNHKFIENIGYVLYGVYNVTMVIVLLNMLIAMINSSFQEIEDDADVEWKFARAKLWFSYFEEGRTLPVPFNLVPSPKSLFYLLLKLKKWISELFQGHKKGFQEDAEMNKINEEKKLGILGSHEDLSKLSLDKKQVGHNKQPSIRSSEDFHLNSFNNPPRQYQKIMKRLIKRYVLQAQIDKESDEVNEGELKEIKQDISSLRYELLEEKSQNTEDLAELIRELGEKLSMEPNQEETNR

PC12 = experiment: Agonist activity at TRPC6 channel in rat PC12 cells assessed as induction of intracellular calcium level at 10 uM by FLIPR calcium 6 assay; format: cell-based; details: time 2.0 hrs
[2] = biological target: T1, Short transient receptor potential channel 6 (Homo sapiens); experiment: Agonist activity at TRPC6 channel in HEK293 cells assessed as intracellular calcium influx stimulation at 1 to 10 uM by Fura-2 AM staining based calcium influx assay; format: cell-based; details: filed as agonist, dose 1-10 µM
[3] = biological target: T2, Short transient receptor potential channel 3 (Homo sapiens) (UniProt Q13507); experiment: Agonist activity at […] TRPC3 channel in HEK293 cells assessed as intracellular calcium influx stimulation at 10 uM by Fura-2 AM staining based calcium influx assay; format: cell-based; details: filed as agonist
T2 sequence (whole entry): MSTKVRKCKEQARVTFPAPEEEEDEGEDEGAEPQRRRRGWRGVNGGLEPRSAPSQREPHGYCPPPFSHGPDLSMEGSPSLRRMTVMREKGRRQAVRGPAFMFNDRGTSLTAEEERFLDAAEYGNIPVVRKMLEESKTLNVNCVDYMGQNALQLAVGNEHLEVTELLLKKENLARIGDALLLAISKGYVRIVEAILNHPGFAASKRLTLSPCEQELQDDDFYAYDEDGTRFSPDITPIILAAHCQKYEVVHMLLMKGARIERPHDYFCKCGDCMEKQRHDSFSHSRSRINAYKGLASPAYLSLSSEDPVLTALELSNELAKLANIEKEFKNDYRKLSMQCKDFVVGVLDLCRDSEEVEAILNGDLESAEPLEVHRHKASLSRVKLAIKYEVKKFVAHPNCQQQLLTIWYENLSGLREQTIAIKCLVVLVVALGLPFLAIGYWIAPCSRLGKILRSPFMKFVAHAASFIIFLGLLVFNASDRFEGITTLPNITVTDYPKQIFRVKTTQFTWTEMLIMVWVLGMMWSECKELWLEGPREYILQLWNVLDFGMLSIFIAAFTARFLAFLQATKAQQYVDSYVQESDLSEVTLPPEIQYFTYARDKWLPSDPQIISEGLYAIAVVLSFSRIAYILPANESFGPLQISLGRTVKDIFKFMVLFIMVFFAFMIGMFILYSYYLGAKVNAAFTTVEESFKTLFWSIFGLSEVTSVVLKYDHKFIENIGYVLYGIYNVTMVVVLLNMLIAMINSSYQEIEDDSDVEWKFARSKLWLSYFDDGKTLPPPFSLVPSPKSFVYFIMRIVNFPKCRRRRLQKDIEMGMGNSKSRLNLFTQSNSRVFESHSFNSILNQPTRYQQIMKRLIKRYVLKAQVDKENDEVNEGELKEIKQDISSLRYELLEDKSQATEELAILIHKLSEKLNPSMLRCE

[4] = Kinetic solubility of compound in 1% DMSO/PBS incubated for 5 mins under shaking condition by turbidimetric method; format: physicochemical; details: read-out: Kinetic_solubility
[5] = Metabolic stability in mouse liver microsomes assessed as intrinsic clearance at 1 uM incubated for 120 mins in presence of NADPH by HPLC-MS/MS analysis; format: ADME, Microsome; details: read-out: CLH
[6] = Stability in CD-1 mouse plasma assessed as half life at 1 uM incubated for 15 mins by HPLC-MS/MS analysis; format: ADME, cell-free
[7] = Metabolic stability in mouse liver microsomes assessed as half life at 1 uM incubated for 120 mins in presence of NADPH by HPLC-MS/MS analysis; format: ADME, Microsome
[8] = Photostability of compound assessed as compound decomposition at 5 mg incubated for 1 week under natural sun light-irradiation and air; format: physicochemical; details: 168 h, time 1 weeks

C=CC[C@@]12C[C@H](CC=C(C)C)C(C)(C)[C@@](CC=C)(C(=O)C(C(C)=O)=C1O)C2=O [listing 1 of 2 here]
Activity [1]: Active | Activity (PC12; filed as agonist): Active | Activity [2]: Active

CCCCCCCC/C=C\CCCCCCCC(=O)OC[C@H](CO)OC(C)=O
Activity [3]: Active | Activity [1]: Active

CC(C)=CCC[C@]1(C)[C@@H](CC=C(C)C)C[C@]2(CC=C(C)C)C(=O)C(CC=C(C)C)=C(O)[C@@]1(C(=O)C(C)C)C2=O
Activity [1]: Active | Activity (PC12; filed as agonist): Active

CC(C)=CC[C@H]1C[C@@]2(CC=C(C)C)C(=O)[C@](CC=C(C)C)(C(=O)C(C(=O)c3ccccc3)=C2O)C1(C)C
Activity (PC12): inactive

C=CC[C@@]12C[C@H](CC=C(C)C)C(C)(C)[C@@](CC=C)(C(=O)C(C(C)=O)=C1O)C2=O [listing 2 of 2 here]
solubility kinetic at 5 min [4]: 49.1 µM (≈ 18.9 µg/mL)

C=CC[C@@]12C[C@H](CC=C(C)C)C(C)(C)[C@@](CC=C)(C(=O)C(C(C)=O)=C1[O-])C2=O.[Na+]
microsomal CLint at 1 µM [5]: 44.7 µL/min/mg | half-life at 1 µM [6]: 2.57 h | half-life at 1 µM [7]: 0.525 h | Stability [8]: Stable | solubility kinetic at 5 min [4]: > 200 µM

CC(=O)C1=C(O)[C@@]2(CC=C(C)C)C[C@H](CC=C(C)C)C(C)(C)[C@@](CC=C(C)C)(C1=O)C2=O
Activity (PC12): inactive
